# Tested on: GB126, GB239 and GB86 patient-derived cell lines
# Experiment: In vitro single-cell RNA sequencing, analyses across the cell lines (pseudobulk differential gene expression, GSEA, non-cycling cells)
# Type: cell-based, human
# Conditions: pseudobulk, ribociclib versus control (DMSO)
# Experimental: Patient-derived glioma stem cell lines (GSCs; GB126, GB86, and GB239) were established from resected GBM tumor tissue. Cell lines were genetically profiled for mutations and copy number aberrations using the IvySeq custom gene panel. […] GB239 was derived from a tumor sample included in this Phase 0 trial (tumor sample: 100-0039). All human GSCs were cultured as described previously.[12]
# Following the fifth day of drug exposure, cells were harvested, cryopreserved to be processed at a later point, or immediately processed for single-cell RNA sequencing (10x Genomics, 3’ version 3). The single-cell RNA sequencing data were then processed via cellranger count and Seurat. Briefly, cells were filtered out based on the following criteria: minimum number of genes detected >500 and <10 000 with a maximum percentage of mitochondrial genes set to 10%. Statistical assessment was made between the malignant proportions of each cell state using a 2-sided paired t-test.
# Descriptive statistics of the clinical data are included in Table 1. Comparisons between groups were conducted using a 2-sided or paired 2-sided t-test, where indicated. P < .05 was considered significant. Multiple hypothesis test corrections (ie, false discovery rate correction) were applied for snRNAseq pseudobulk differential expression analysis.
structure (smiles),measurement,setting,value
CN(C)C(=O)c1cc2cnc(Nc3ccc(N4CCNCC4)cn3)nc2n1C1CCCC1 [ribo],log2FoldChange ABCA6,gene ABCA6,1.5
same,log2FoldChange ABCA8,gene ABCA8,1.548
same,log2FoldChange AC002074.1,gene AC002074.1,1.866
same,log2FoldChange AC002383.1,gene AC002383.1,1.53
same,log2FoldChange AC004828.1,gene AC004828.1,1.459
same,log2FoldChange AC005538.3,gene AC005538.3,2.148
same,log2FoldChange AC007317.2,gene AC007317.2,2.061
same,log2FoldChange AC009313.1,gene AC009313.1,1.78
same,log2FoldChange AC009975.2,gene AC009975.2,1.436
same,log2FoldChange AC010230.1,gene AC010230.1,1.7556
same,log2FoldChange AC010551.3,gene AC010551.3,1.556
same,log2FoldChange AC012038.2,gene AC012038.2,2.048
same,log2FoldChange AC012405.1,gene AC012405.1,1.439
same,log2FoldChange,gene AC012533.1,-1.092
same,log2FoldChange AC012625.1,gene AC012625.1,1.675
same,log2FoldChange AC013480.1,gene AC013480.1,1.662
same,log2FoldChange AC020892.1,gene AC020892.1,1.613
same,log2FoldChange AC023644.1,gene AC023644.1,1.813
same,log2FoldChange,gene AC024884.2,-1.745
same,log2FoldChange AC025263.1,gene AC025263.1,1.435
same,log2FoldChange,gene AC026333.4,-1.805
same,log2FoldChange AC026888.1,gene AC026888.1,1.994
same,log2FoldChange AC027117.1,gene AC027117.1,1.702
same,log2FoldChange AC055874.1,gene AC055874.1,1.6992
same,log2FoldChange AC073611.1,gene AC073611.1,1.444
same,log2FoldChange AC079117.1,gene AC079117.1,1.6417
same,log2FoldChange AC090403.1,gene AC090403.1,1.628
same,log2FoldChange AC091953.1,gene AC091953.1,1.742
same,log2FoldChange AC092604.1,gene AC092604.1,1.65
same,log2FoldChange AC092617.1,gene AC092617.1,2.048
same,log2FoldChange AC092691.3,gene AC092691.3,1.975
same,log2FoldChange AC096576.2,gene AC096576.2,1.586
same,log2FoldChange AC096576.3,gene AC096576.3,1.66
same,log2FoldChange AC097375.4,gene AC097375.4,1.562
same,log2FoldChange,gene AC099850.3,-1.64
same,log2FoldChange AC100835.2,gene AC100835.2,1.894
same,log2FoldChange AC104078.2,gene AC104078.2,1.507
same,log2FoldChange AC104574.1,gene AC104574.1,1.483
same,log2FoldChange AC106874.1,gene AC106874.1,1.556
same,log2FoldChange AC109129.1,gene AC109129.1,1.6709
same,log2FoldChange AC110296.1,gene AC110296.1,1.762
same,log2FoldChange AC114546.2,gene AC114546.2,1.559
same,log2FoldChange AC114964.2,gene AC114964.2,1.675
same,log2FoldChange,gene AC116914.1,-1.614
same,log2FoldChange AC121154.1,gene AC121154.1,1.879
same,log2FoldChange AC132153.1,gene AC132153.1,1.518
same,log2FoldChange AC133530.1,gene AC133530.1,1.513
same,log2FoldChange AC137579.1,gene AC137579.1,1.549
same,log2FoldChange,gene AC138819.1,-1.883
same,log2FoldChange ACSM5,gene ACSM5,2.672
same,log2FoldChange,gene ACYP1,-1.092
same,log2FoldChange ADAMTS4,gene ADAMTS4,1.636
same,log2FoldChange ADCY5,gene ADCY5,1.503
same,log2FoldChange ADGRA1-AS1,gene ADGRA1-AS1,1.641
same,log2FoldChange ADH1A,gene ADH1A,1.456
same,log2FoldChange AL022324.3,gene AL022324.3,1.692
same,log2FoldChange,gene AL031658.2,-1.667
same,log2FoldChange AL132633.1,gene AL132633.1,1.623
same,log2FoldChange,gene AL132655.3,-1.059
same,log2FoldChange AL135934.1,gene AL135934.1,1.5674
same,log2FoldChange,gene AL138789.1,-1.6906
same,log2FoldChange AL158058.1,gene AL158058.1,2.1266
same,log2FoldChange AL162385.1,gene AL162385.1,2.332
same,log2FoldChange AL354813.1,gene AL354813.1,1.4344
same,log2FoldChange AL355916.2,gene AL355916.2,1.536
same,log2FoldChange,gene AL356094.2,-1.675
same,log2FoldChange AL358394.1,gene AL358394.1,2.818
same,log2FoldChange,gene AL390839.2,-1.735
same,log2FoldChange AL391730.2,gene AL391730.2,1.804
same,log2FoldChange AL445423.1,gene AL445423.1,1.473
same,log2FoldChange AL591686.1,gene AL591686.1,1.912
same,log2FoldChange,gene AL645608.7,-1.064
same,log2FoldChange,gene ANP32E,-1.059
same,log2FoldChange AP000569.1,gene AP000569.1,1.498
same,log2FoldChange AP000857.2,gene AP000857.2,1.634
same,log2FoldChange AP001825.1,gene AP001825.1,1.5203
same,log2FoldChange AP002370.2,gene AP002370.2,1.537
same,log2FoldChange AP002761.2,gene AP002761.2,1.672
same,log2FoldChange,gene ARHGAP11A,-1.6744
same,log2FoldChange ARHGAP26-IT1,gene ARHGAP26-IT1,2.344
same,log2FoldChange,gene ARNTL2,-1.092
same,log2FoldChange ASB9,gene ASB9,1.438
same,log2FoldChange BAIAP3,gene BAIAP3,1.561
same,log2FoldChange BBOX1,gene BBOX1,1.457
same,log2FoldChange,gene BRIP1,-1.784
same,log2FoldChange BST2,gene BST2,1.645
same,log2FoldChange,gene BUB1,-1.8
same,log2FoldChange,gene C1QTNF2,-1.812
same,log2FoldChange C1orf147,gene C1orf147,1.503
same,log2FoldChange C16orf89,gene C16orf89,1.4386
same,log2FoldChange C20orf78,gene C20orf78,1.576
same,log2FoldChange,gene C21orf58,-1.614
same,log2FoldChange CALB2,gene CALB2,2.123
same,log2FoldChange,gene CAMK2N2,-1.147
same,log2FoldChange,gene CCDC74A,-1.6
same,log2FoldChange,gene CCDC74B,-1.688
same,log2FoldChange,gene CCNE2,-1.873
same,log2FoldChange,gene CCNF,-1.863
same,log2FoldChange,gene CDCA4,-1.7252
same,log2FoldChange,gene CDKN3,-1.855
same,log2FoldChange,gene CHAF1B,-1.654
same,log2FoldChange CHGA,gene CHGA,1.609
same,log2FoldChange CHI3L1,gene CHI3L1,1.918
same,log2FoldChange CHL1-AS1,gene CHL1-AS1,1.667
same,log2FoldChange CHST4,gene CHST4,1.465
same,log2FoldChange CLEC1A,gene CLEC1A,1.693
same,log2FoldChange,gene CRHR1,-1.091
same,log2FoldChange CYP4Z1,gene CYP4Z1,1.554

# Source: publication PMC13070491, “Single-nucleus transcriptomics, pharmacokinetics, and pharmacodynamics of CDK4/6 and mTOR inhibition in a Phase 0/1 trial of recurrent high-grade glioma” (Neuro-Oncology, 2025)
